Reference: the supplement of paper PMC11451515

System: P12-Ichikawa
Assay: cell viability relative to DMSO control; higher = less cytotoxic
Details: 48 h
Outline: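 Viability was expressed as a per-plate percentage of DMSO wells, with cell-free wells as background. Leukemia cells (NOMO1 or SEM at 500 cells/well, P12-Ichikawa at 1000 cells/well) were adapted for at least four passages in each medium and seeded in 1536-well plates (5 μl). Library compounds in DMSO were pin-dosed over an 11-point threefold series from 47 μM to 0.79 nM, and CellTiter-Glo One luminescence was read after 48 h at 37°C.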

[1] = HPLM + 10% dialyzed FBS, 0.000781 µM
[2] = HPLM + 10% dialyzed FBS, 0.00234 µM
[3] = HPLM + 10% dialyzed FBS, 0.00702 µM
[4] = HPLM + 10% dialyzed FBS, 0.0211 µM
[5] = HPLM + 10% dialyzed FBS, 0.0632 µM
[6] = HPLM + 10% dialyzed FBS, 0.19 µM
[7] = HPLM + 10% dialyzed FBS, 0.569 µM
[8] = HPLM + 10% dialyzed FBS, 1.71 µM
[9] = HPLM + 10% dialyzed FBS, 5.12 µM
[10] = HPLM + 10% dialyzed FBS, 15.4 µM
[11] = HPLM + 10% dialyzed FBS, 46.1 µM
[12] = RPMI 5 mM glucose + 10% FBS, 0.000781 µM
[13] = RPMI 5 mM glucose + 10% FBS, 0.00234 µM
[14] = RPMI 5 mM glucose + 10% FBS, 0.00702 µM
[15] = RPMI 5 mM glucose + 10% FBS, 0.0211 µM
[16] = RPMI 5 mM glucose + 10% FBS, 0.0632 µM
[17] = RPMI 5 mM glucose + 10% FBS, 0.19 µM
[18] = RPMI 5 mM glucose + 10% FBS, 0.569 µM
[19] = RPMI 5 mM glucose + 10% FBS, 1.71 µM
[20] = RPMI 5 mM glucose + 10% FBS, 5.12 µM
[21] = RPMI 5 mM glucose + 10% FBS, 15.4 µM
[22] = RPMI 5 mM glucose + 10% FBS, 46.1 µM
[23] = RPMI 5 mM glucose + 10% dialyzed FBS, 0.000781 µM
[24] = RPMI 5 mM glucose + 10% dialyzed FBS, 0.00234 µM
[25] = RPMI 5 mM glucose + 10% dialyzed FBS, 0.00702 µM
[26] = RPMI 5 mM glucose + 10% dialyzed FBS, 0.0211 µM
[27] = RPMI 5 mM glucose + 10% dialyzed FBS, 0.0632 µM
[28] = RPMI 5 mM glucose + 10% dialyzed FBS, 0.19 µM
[29] = RPMI 5 mM glucose + 10% dialyzed FBS, 0.569 µM
[30] = RPMI 5 mM glucose + 10% dialyzed FBS, 1.71 µM
[31] = RPMI 5 mM glucose + 10% dialyzed FBS, 5.12 µM
[32] = RPMI 5 mM glucose + 10% dialyzed FBS, 15.4 µM
[33] = RPMI 5 mM glucose + 10% dialyzed FBS, 46.1 µM

SMILES	cell viability [1]	cell viability [2]	cell viability [3]	cell viability [4]	cell viability [5]	cell viability [6]	cell viability [7]	cell viability [8]	cell viability [9]	cell viability [10]	cell viability [11]	cell viability [12]	cell viability [13]	cell viability [14]	cell viability [15]	cell viability [16]	cell viability [17]	cell viability [18]	cell viability [19]	cell viability [20]	cell viability [21]	cell viability [22]	cell viability [23]	cell viability [24]	cell viability [25]	cell viability [26]	cell viability [27]	cell viability [28]	cell viability [29]	cell viability [30]	cell viability [31]	cell viability [32]	cell viability [33]
ClC1=CC=C(CCCOC/2=N/NC(=O)C(=C2NCC3=CN=CC=C3)/Br)C=C1	115%	115%	113%	117%	118%	110%	104%	95.5%	61.6%	35.7%	14.4%	109%	114%	110%	122%	125%	124%	113%	112%	96.3%	69.6%	38.5%	113%	115%	116%	110%	110%	115%	106%	90.4%	56.7%	26.9%	13.7%
CN(C)Cc1ccc(-c2nc3cccc4c3n2CCNC4=O)cc1	90.5%	100%	105%	103%	109%	102%	112%	109%	108%	114%	110%	92.8%	96.3%	94.7%	108%	108%	105%	106%	107%	109%	109%	106%	90.2%	99.1%	101%	109%	107%	111%	107%	108%	105%	102%	112%
CC(=O)N1CCN(c2ccc(OCc3nn(C)c(C)c3-c3cccc4c(CCCOc5cc(C)c(Cl)c(C)c5)c(C(=O)O)n(Cc5cccnc5)c34)cc2)CC1	104%	113%	112%	115%	114%	111%	113%	107%	115%	113%	39.2%	105%	106%	115%	118%	120%	127%	116%	123%	125%	126%	64.9%	104%	115%	115%	122%	125%	121%	112%	110%	118%	115%	66.7%
NC(=O)c1ccc(-c2nc(-c3ccc4c(c3)OCCO4)c(-c3ccccn3)[nH]2)cc1	120%	125%	125%	118%	122%	119%	124%	122%	117%	117%	111%	122%	126%	115%	129%	117%	115%	118%	131%	116%	114%	110%	121%	114%	120%	126%	126%	121%	121%	110%	127%	117%	106%
Nc1ccccc1NC(=O)c1ccc(CNc2nccc(-c3cccnc3)n2)cc1	106%	107%	108%	113%	110%	120%	113%	85.6%	7.68%	6.63%	7%	101%	106%	109%	110%	111%	110%	114%	71.1%	9.5%	6.39%	6.22%	109%	107%	113%	122%	122%	117%	110%	83%	8.72%	7.24%	6.17%
CN(C)CCOC(c1ccccc1)c1ccccc1	104%	107%	105%	103%	111%	111%	112%	103%	109%	111%	82.8%	96.1%	105%	99.4%	112%	110%	105%	105%	105%	100%	110%	85.5%	94%	102%	104%	104%	112%	104%	105%	101%	111%	96.8%	83%
